Paper PMC12260505, “First-in-Human Phase I/IIa Study of the First-in-Class CDK2/4/6 Inhibitor PF-06873600 Alone or with Endocrine Therapy in Patients with Breast Cancer” (Clinical Cancer Research, 2025)

What was measured:
[1] = test system: HR+/HER2− metastatic breast cancer; experiment: Antitumor activity by RECIST version 1.1; assay type: in vivo, human; conditions: for Objective response (CR + PR; pts with HR+/HER2− breast cancer with measurable disease at baseline and prior CDK4/6i): 40 such pts
Experimental: Antitumor activity was assessed through radiological tumor assessments conducted at baseline, during treatment, whenever disease progression was suspected (e.g., symptomatic deterioration), and at the time of withdrawal from treatment (if not done in the previous 8 weeks). Responses were assessed using RECIST version 1.1.
DLT was the primary endpoint of the study, summarized by dose level using the per-protocol analysis set for patients in the dose escalation portion of the study. Efficacy analysis was summarized by dose cohorts for part 2 of the study. For part 1, no formal efficacy analysis was presented. For part 2, tumor response was presented in the form of patient data listings that included, but were not limited to, tumor type, starting dose, tumor response at each visit, and best overall response. In addition, progression date, death date, date of first response, last tumor assessment date, and date of last contact were listed. ORR, PFS, overall survival, TTP, and DoR were summarized and presented as data permitted. For response-based metrics (best overall response, ORR, and DoR), analyses were presented on the basis of confirmed responses. Analyses of PFS and TTP were defined as the time from the date of the first dose. Summaries of the number and percentage of patients with PFS and TTP and data listings by tumor type and dose were generated based on data availability. The 95% confidence intervals (CI) for medians and quartiles were generated based on the Brookmeyer–Crowley method, whereas CIs for the estimated probability of an event at a particular time point were generated using the Greenwood formula. DoR was summarized with the number of responders, the number and percentage of events/censorship, mean, standard deviation, and minimum, maximum, and median duration in units of months. ORR was summarized by the number of patients meeting respective criteria as a percentage. The 95% CIs were generated for PFS, TTP, and ORR based on available data.

CDK9 = target: CDK9; parameters: method as in PMID 34110834; conditions: cited from earlier work
CDK1 = target: CDK1; parameters: method as in PMID 34110834; conditions: cited from earlier work
CDK4 = target: CDK4; parameters: method as in PMID 34110834; conditions: cited from earlier work
Ki67 = experiment: IHC of Ki67 in paired tumor biopsies; assay type: in vivo, human
Experimental: The pharmacodynamic effects of PF-06873600 were assessed by IHC staining of pRb and Ki67 in tumor biopsy samples collected at screening and day 1 of cycle 2 (4 hours after dose). Immunostaining was performed on […] formalin-fixed, paraffin-embedded tissue sections using rabbit monoclonal anti-Rb (Ser807/811) antibody (clone D20B12, Cell Signaling Technology) and rabbit monoclonal anti-Ki67 antibody (Ventana Medical Systems), respectively. pRb and Ki67 expressions were assessed semiquantitatively by a board-certified pathologist. Scoring was performed using the percentage of cells positive for Ki67 or a histo-score (H-score) methodology for pRb based on staining intensity and the percentage of positive cells. Intensity was scored as 0, none; 1, weak; 2, moderate; or 3, strong, and H-scores were calculated as follows: H-score = [fraction of cells with intensity grade 1 (%)] + [fraction of cells with intensity grade 2 (%) × 2] + [fraction of cells with intensity grade 3 (%) × 3].

[2] = Part 2A 25 mg twice daily IR + Fulvestrant, n = 45, response-evaluable set
[3] = Part 2C 25 mg twice daily IR + Fulvestrant, n = 22, response-evaluable set
[4] = Part 2 total (2A + 2C, + Fulvestrant), N = 67

## C[C@@]1(O)CCC[C@H]1n1c(=O)c(C(F)F)cc2cnc(NC3CCN(S(C)(=O)=O)CC3)nc21 [PF-06873600]
[1]; Part 2A 25 mg twice daily IR + Fulvestrant
  Objective response (CR + PR; pts with HR+/HER2− breast cancer with measurable disease at baseline and prior CDK4/6i): 3 (7.5) n (%)
[1]; Part 2A 25 mg twice daily IR + Fulvestrant, 44 such pts
  Objective response (pts with HR+/HER2− breast cancer with measurable disease at baseline): 3 (6.8) n (%)
[1]; [2]
  Clinical benefit response (CR, PR, or ≥24 weeks stable disease): 19 (42.2) n (%)
  Confirmed best overall response, CR: 0 n (%)
  Confirmed best overall response, NE (not evaluable): 1 (2.2) n (%)
  Confirmed best overall response, Non-CR/non-PD: 0 n (%)
  Confirmed best overall response, PR: 3 (6.7) n (%)
  Confirmed best overall response, Progressive disease (PD): 11 (24.4) n (%)
  Confirmed best overall response, Stable disease: 30 (66.7) n (%)
  Disease control (CR + PR + stable disease + non-CR/non-PD): 33 (73.3) n (%)
  Objective response (CR + PR): 3 (6.7) n (%)
[1]; Part 2C 25 mg twice daily IR + Fulvestrant, 20 such pts
  Objective response (pts with HR+/HER2− breast cancer with measurable disease at baseline): 5 (25.0) n (%)
[1]; [3]
  Clinical benefit response (CR, PR, or ≥24 weeks stable disease): 13 (59.1) n (%)
  Confirmed best overall response, CR: 0 n (%)
  Confirmed best overall response, NE (not evaluable): 1 (4.5) n (%)
  Confirmed best overall response, Non-CR/non-PD: 1 (4.5) n (%)
  Confirmed best overall response, PR: 5 (22.7) n (%)
  Confirmed best overall response, Progressive disease (PD): 2 (9.1) n (%)
  Confirmed best overall response, Stable disease: 13 (59.1) n (%)
  Disease control (CR + PR + stable disease + non-CR/non-PD): 19 (86.4) n (%)
  Objective response (CR + PR): 5 (22.7) n (%)
[1]; [4]
  Clinical benefit response (CR, PR, or ≥24 weeks stable disease): 32 (47.8) n (%)
  Confirmed best overall response, CR: 0 n (%)
  Confirmed best overall response, NE (not evaluable): 2 (3.0) n (%)
  Confirmed best overall response, Non-CR/non-PD: 1 (1.5) n (%)
  Confirmed best overall response, PR: 8 (11.9) n (%)
  Confirmed best overall response, Progressive disease (PD): 13 (19.4) n (%)
  Confirmed best overall response, Stable disease: 43 (64.2) n (%)
  Disease control (CR + PR + stable disease + non-CR/non-PD): 52 (77.6) n (%)
  Objective response (CR + PR): 8 (11.9) n (%)
[1]; Part 2 total (+ Fulvestrant)
  Objective response (CR + PR; pts with HR+/HER2− breast cancer with measurable disease at baseline and prior CDK4/6i): 3 (7.5) n (%)
[1]; Part 2 total (+ Fulvestrant), 64 such pts
  Objective response (pts with HR+/HER2− breast cancer with measurable disease at baseline): 8 (12.5) n (%)
[1]; part 1 dose escalation, 78 patients (parts 1A, 1B, 1C)
  Partial responses (PR), patients: 3.8%
CDK9
  Ki: 19.6 nM
CDK1
  Ki: 4.5 nM
CDK4
  Ki: 1.25 nM
Ki67; IR 25 mg twice daily monotherapy, cycle 2 day 1, HR+/HER2− mBC tumor biopsies
  Median percentage change in Ki67-positive cells from baseline: –11.7%
Ki67; IR 25 mg twice daily/fulvestrant combination, cycle 2 day 1
  Median percentage change in Ki67-positive cells from baseline: –35.9%
